{"source": "patent US20150119345A1", "about": "“BILE ACID RECYCLING INHIBITORS FOR TREATMENT OF GASTROINTESTINAL INFECTIONS” (priority 2013, published 2015)", "origin": "cited, not measured here", "key": {"mice": {"tested_on": "mice", "conditions": "0.1 mg/kg rat or human GLP-2 to mice for 7-10 days"}}, "data": [{"substance": "GLP-2: 33 amino acid peptide, co-secreted along with GLP-1 from intestinal endocrine cells in the small and large intestine", "values": [{"measurement": "small bowel weight and villus height", "setting": "mice", "value": "increase in small bowel weight and villus height"}, {"measurement": "t½ in vivo", "value": "short"}]}]}
